# Source: patent US20150159169A1, “Plants Tolerant to HPPD Inhibitor Herbicides” (Bayer CropScience AG, priority 2009, published 2015)
# “And” between values parts separate entries of the source, which are not always exact repeats. Equal entries are not always repeated.
# Assays:
# [1] = system: T0 tobacco plants expressing the FMP27 HPPD (FMP27t); assay: Greenhouse response of T0 tobacco plants to tembotrione; assay type: in vivo, Nicotiana tabacum; conditions: 100 g AI/ha, two weeks after treatment
# Method: As an example, rooted plants containing the T-DNA PromCaMV35S-OTP-HIS6-FMP27t-TerCaMV35S, were transferred to the greenhouse under standard growth conditions. Following a period of acclimation of two weeks, the T0 plants were treated with a mixture containing 100 g tembotrione/ha prepared from a WP20 (wettable powder 20%) formulation supplemented with ammonium sulfate and methyl ester raps oil. Two weeks after the treatment, the symptoms due to the application of the herbicides were evaluated. The plants were classified in four categories. The treated plants evaluated as “0” are looking like the untreated tobacco plants. The plants evaluated as “1” display temporarily light bleaching phenotype due to the application of the herbicides. The plants evaluated as “2” display permanent light to strong bleaching symptoms. Finally the plants evaluated as “3” are looking like wild type tobacco plants submitted to the same treatment.
# [2] = system: tobacco plants containing FMP27t-h, PAT and 2mEPSPS (pFCO116); assay: Glasshouse response of three-tolerance-gene tobacco to herbicides, injury classes; assay type: in vivo, Nicotiana tobacum; conditions: 100 g AI/ha, 9 DAT
# Method: A binary vector for tobacco transformation is, for example, constructed with the CaMV35 promoter driving the expression of the gene FMP27t-h (SEQ ID No. 15), with a codon usage optimized for the expression in dicotyledoneous plants and at its 5′extremity was added a sequence coding for an OTP, and further upstream a sequence TEV (Tobacco etch virus) to improve the stability of the mRNA in plants followed by the CaMV35S terminator. The nucleotide sequence of the gene FMP27t-h is given in SEQ ID No. 15. Additionally, the transformation vector also contains a PAT gene cassette in which the gene is driven by a CaVM35S promoter and followed by a CaMV35S terminator for glufosinate based selection during the transformation process and a 2mEPSPS gene cassette in which the gene is driven by an histone promoter from Arabidopsis to confer tolerance to the herbicide glyphosate to the transformed plants (see FIG. 3 H). The binary vector was called pFCO116. The above vector was used to transform leaf disc obtained from Nicotiana tobacum plants, according to Example 3.
# Transgenic tobacco plants were transferred to the greenhouse and treated with glyphosate at a rate of 1121 g AI/ha. Seeds were produced from such tolerant tobacco plants and harvested. These seeds were put on soil to germinate in the glasshouse. Three to four weeks later, 50 plantlets per event were transferred to single pots. Two weeks later, plants of a size 4-6 cm were sprayed either with
# […] […] Non-transgenic tobacco plants were completely killed by treatment using one or more of the above herbicides.
# [3] = target: Kordia algicida HPPD "SEQ ID No. 5" (FMP27e) (Kordia algicida, UniProt A9DQF2); assay: HPLC assay of HPPD in vitro kinetic properties; assay type: biochemical
# Method: Km, Vmax, and kcat values for different HPPD enzyme preparations and Ki, K1=Kon, and K−1=Koff for different HPPD inhibitors were determined using a HPLC assay for measurements of HPPD activity. […] All assays were started by the addition of HPPD enzyme to the assay mixture and stopped at a series of times between 0 and 240 s by addition of 200 μl of the reaction mixture to reaction assay tubes containing 20 μl 10% perchloric acid. Precipitated protein was pelleted by a 5 minute centrifugation at 10,000 g.
# For Km and Vmax value determinations the initial rates of the HPPD reaction at different substrate concentrations were determined from plots of HGA formed versus time and fitted to the Michaelis-Menten equation for unireactant enzymes using the ID Business Solutions Ltd. (idbs.com) XLfit software suite.
# [4] = system: T1 tobacco plants containing FMP27e (Kordia algicida HPPD FMP27); assay: Glasshouse spray trial, % injury; assay type: in vivo, Nicotiana tabacum; conditions: 7DAT, 100 gAI/ha spray
# Method: (§1) T0 Tobacco plants containing either the gene from Arabidopsis coding for HPPD or the gene FMP27e from Kordia algicida coding for FMP27 HPPD, mentioned above (Example 3), were transferred to the glasshouse (28/20° C.), to develop further and produce seeds. Those seeds were harvested and put on soil (ED73 mixed with sand and osmocote Pro) to germinate in the glasshouse (28/20° C.). Three to four weeks later, plantlets were transferred to single pots containing the soil mentioned above. Two weeks later, plants of a size 4-6 cm diameter were sprayed with either • tembotrione at 100 gAI/ha prepared from a WP20 (wettable powder 20%) formulation supplemented with ammonium sulfate and methyl ester raps oil, or • isoxaflutole at 100 gAI/ha prepared from a WP20 formulation supplemented with ammonium sulfate and methyl ester raps oil, or • bicyclopyrone at 100 gAI/ha prepared from a WP20 formulation supplemented with ammonium sulfate and methyl ester raps oil, or • “blind formulation” made from a WP20 formulation without active ingredient (AI) supplemented with ammonium sulfate and methyl ester raps oil, and were then transferred to a growth chamber with adequate light conditions (20000 Lux).
# (§2) Table 6: Wild type tobacco plants (A) and T1 populations of tobacco events containing alternatively, the expression cassettes described above having the promoter CaMV 35S, the sequence coding for OTP and the sequence coding for Arabidopsis HPPD (B) or the promoter CaMV35S, the sequence encoding OTP, and the sequence FMP27e coding for the HPPD FMP27 (C). Assessments of herbicidal damage at 7 days after application (DAT) per spray with 100 g AI/ha of tembotrione or isoxaflutole supplemented with ammonium sulfate and methyl ester raps oil. […] Plants belonging to categories (B) and (C) have not been selected for the presence of the respective transgene prior to the herbicide application.
# [5] = system: T1 tobacco plants containing Arabidopsis HPPD; assay: Glasshouse spray trial, % injury; assay type: in vivo, Nicotiana tabacum; conditions: 7DAT, 100 gAI/ha spray
# Method: as §1, §2
# [6] = system: wild type tobacco plants; assay: Glasshouse spray trial, % injury; assay type: in vivo, Nicotiana tabacum; conditions: 7DAT, 100 gAI/ha spray; individual WT plants; 100% = bleaching as wild type
# Method: as §1, §2
# Sequence of Kordia algicida HPPD "SEQ ID No. 5" (FMP27e) (A9DQF2 entry or part of it): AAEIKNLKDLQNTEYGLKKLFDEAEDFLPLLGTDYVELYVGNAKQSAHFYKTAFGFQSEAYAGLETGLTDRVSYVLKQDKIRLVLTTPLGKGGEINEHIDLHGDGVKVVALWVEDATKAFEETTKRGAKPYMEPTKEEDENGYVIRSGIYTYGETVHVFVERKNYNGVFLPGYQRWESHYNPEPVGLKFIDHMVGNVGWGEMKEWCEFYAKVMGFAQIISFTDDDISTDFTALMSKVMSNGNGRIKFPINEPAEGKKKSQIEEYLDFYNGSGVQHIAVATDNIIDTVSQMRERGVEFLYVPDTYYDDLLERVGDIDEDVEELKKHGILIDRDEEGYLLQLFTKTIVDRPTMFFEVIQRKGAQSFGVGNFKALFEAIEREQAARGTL
smiles,measurement,setting,value
"CS(=O)(=O)c1ccc(C(=O)C2C(=O)CCCC2=O)c(Cl)c1COCC(F)(F)F [Tembotrione, 2-[2-chloro-4-(methylsulfonyl)-3-[(2,2,2,-tri-fluoroethoxy)methyl]benzoyl]-1,3-cyclo-hexanedione]",number of plants in category 0 (looking like the untreated tobacco plants),[1],11
same,number of plants in category 1 (temporarily light bleaching),[1],4
same,number of plants in category 2 (permanent light to strong bleaching),[1],10
same,number of plants in category 3 (like wild type plants submitted to the same treatment),[1],4
same,"Class I, number of plants (no injuries)",[2]; line 639,7
same,"Class II, number of plants (injury: 10-40%)",[2]; line 639,3
same,"Class III, number of plants (injury: 41-100%)",[2]; line 639,0
same,"Class I, number of plants (no injuries)",[2]; line 714,5
same,"Class II, number of plants (injury: 10-40%)",[2]; line 714,1
same,"Class III, number of plants (injury: 41-100%)",[2]; line 714,4
same,"Class I, number of plants (no injuries)",[2]; line 717,4
same,"Class II, number of plants (injury: 10-40%)",[2]; line 717,2
same,"Class III, number of plants (injury: 41-100%)",[2]; line 717,4
same,Ki,[3],33 µM
same,kon,[3]; read-out: k1 (=Kon),490 M⁻¹ s⁻¹
same,koff,[3]; read-out: k−1 (=Koff),0.016 s⁻¹
same,% injury,"[4]; line 121, individual T1 plants",0% (4×) and 5% (3×) and 10% (6×)
same,% injury,"[4]; line 129, individual T1 plants",0% (2×) and 5% (2×) and 10% (2×) and 15% (2×) and 30% (2×)
same,% injury,"[4]; line 218, individual T1 plants",0% (11×) and 5% (4×)
same,% injury,"[5]; line 252, individual T1 plants",30% and 40% (3×) and 50% and 60% (2×) and 70% (2×) and 75% (3×) and 80%
same,% injury,"[5]; line 258, individual T1 plants",100% (5×) and 30%
same,% injury,"[5]; line 327, individual T1 plants",10% and 20% (2×) and 40% and 50% (2×) and 70% (5×) and 80% (4×)
same,% injury,[6],100%
